Biological target: T1, human GPR84 receptor (Homo sapiens, UniProt Q9NQS5)
T1 construct: host or cells: HEK293 cells, transient transfection
Experiment: Gαi biosensor BRET assay in HEK293 cells transfected with GPR84, stimulated with the GPR84 agonist ZQ-16
Assay type: cell-based
Conditions: 200 nmol/L ZQ-16; for inhibition at 10 µM / inhibition at 2 µM: HEK293, single concentration; for inhibition at 10 µM: concentration class F = 10 μM; for inhibition at 2 µM: concentration class A = 2 μM
Text: Background—The following assays can be used for determination of GPR84 activation in living HEK293 cells. The Gαi BRET biosensor (Gagnon et al., 2018; Gales et al., 2006. Nat Struct Mol Biol. 13, 778-86; Saulieres et al., 2012. Nat Chem Biol. 8, 622-30) allows to directly monitor GPR84-mediated activation of Gαi. The Gαi biosensor consists of a Rluc8-tagged Gαi2 subunit, a GFP10-tagged Gγ2 subunit, and an untagged GB1. Agonist stimulation and GPR84 activation triggers a physical separation between the RLuc8-Gαi donor and the GFP10-Gγ2 acceptor, resulting in a decrease in BRET signal whose amplitude is correlated to ligand efficacy (Gales et al., 2006). Moreover, signaling functions of GPCRs are tightly regulated by endocytosis, the targeting of receptors to endosomes and their sorting to lysosomes or recycling to the plasma membrane. The early endosomes (EEs) trafficking assay (Namkung et al., 2016. Nat Commun. 7, 12178) uses Rluc8-tagged GPR84 and Renilla GFP (rGFP) attached to the FYVE domain from human endofin/zinc finger FYVE domain-containing protein 16, which binds phosphatidylinositol 3-phosphate in EEs. Agonist stimulation of GPR84-Rluc8 leads to trafficking of the receptor to EEs, and ensuing increase of the donor concentration relative to the rGFP-FYVE acceptor anchored in the same cellular compartment, and thus results in an increase in BRET signal.
Plasmids—The cDNA clones for human GPR84 receptor, human Gαi2, Gβ1, and Gγ2 were obtained from the cDNA Resource Center (www.cdna.org). GFP10 (F64L, S147P, S202F and H231L variant of Aequorea victoria Green Fluorescent Protein) gBlocks gene fragments (Integrated DNA Technologies, IA) and linker were inserted in frame at the N-terminus of human Gγ2. Rluc8 (A^55T, Cl24A, S130A, K136R, A^143M, M185V, M253L, and S287L variant of the Renilla reniformis luciferase) gBlocks gene fragment was inserted with linkers in frame in between residues 91 and 92 of Gαi2 or at the C-terminus of GPR84. The FYVE domain from human endofin (residues Q739 to K806) attached in frame at the C terminus of a humanized Renilla GFP (rGFP), were synthesized as gBlocks gene fragments.
Bioluminescence Resonance Energy Transfer (BRET) Measurement-HEK293 cells were transfected with GPR84-Rluc8 and rGFP-FYVE for the EEs trafficking biosensor or with GPR84, Gαi2-Rluc8, GFP10-Gγ2, and Gβ1 for the Gαi biosensor. The following day, transiently transfected cells were seeded in 96-well white clear bottom microplates coated with poly-D-lysine and left in culture for 24 hours. Cells were washed once with Tyrode's buffer (140 mmol/L NaCl, 1 mmol/L CaCl2, 2.7 mmol/L KCl, 0.49 mmol/L MgCl2, 0.37 mmol/L NaH2PO4, 5.6 mmol/L glucose, 12 mmol/L NaHCO3, and 25 mmol/L HEPES, pH 7.5) before performing assays in Tyrode's buffer. Test compounds were incubated with cells for 5 (Gai) or 15 (EEs) minutes at 37° C. before addition of 200 nmol/L of the GPR84 agonist ZQ-16 (2-(Hexylthio)-6-hydroxy-4 (3H)-pyrimidinone) for 5 minutes at room temperature (Gai) or 30 minutes at 37° C. (EEs). The Rluc8 substrate coelenterazine 400A (Prolume, Lakeside, AZ) was added at a final concentration of 5 μmol/L and BRET readings were collected using an Infinite M1000 microplate reader (Tecan, Morrisville, NC). BRET2 readings between Rluc8 and GFP10 or rGFP were collected by sequential integration of the signals detected in the 370 to 450 nm (Rluc8) and 510 to 540 nm (GFP10, rGFP) windows. The BRET signal was calculated as the ratio of light emitted by acceptor (GFP10, rGFP) over the light emitted by donor (Rluc8). The values were corrected to net BRET by subtracting the background BRET signal obtained in cells transfected with Rluc8 constructs alone. Ligand-promoted net BRET values were calculated by subtracting vehicle-induced net BRET from ligand-induced net BRET.

T1 sequence (Q9NQS5 whole entry): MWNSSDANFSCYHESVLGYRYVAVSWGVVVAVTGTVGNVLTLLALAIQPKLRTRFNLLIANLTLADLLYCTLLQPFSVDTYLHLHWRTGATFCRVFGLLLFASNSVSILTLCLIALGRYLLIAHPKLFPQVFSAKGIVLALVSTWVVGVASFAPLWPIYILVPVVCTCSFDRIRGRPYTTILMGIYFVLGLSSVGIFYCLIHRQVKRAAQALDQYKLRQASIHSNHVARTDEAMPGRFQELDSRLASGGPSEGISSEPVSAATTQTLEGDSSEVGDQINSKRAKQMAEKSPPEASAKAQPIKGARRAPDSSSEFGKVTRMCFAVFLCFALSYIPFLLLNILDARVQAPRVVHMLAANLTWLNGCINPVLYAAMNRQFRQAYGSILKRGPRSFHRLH

| SMILES | IC50 | inhibition at 10 µM | inhibition at 2 µM |
| --- | --- | --- | --- |
| CCc1cc(C#CCNS(C)(=O)=O)ccc1-c1cn(CC2OCC(C)(C)CO2)nn1 [Compound I-1, N-(3-(4-(1-((5,5-dimethyl-1,3-dioxan-2-yl)methyl)-1H-1,2,3-triazol-4-yl)-3-ethylphenyl)prop-2-ynyl)methanesulfonamide] | 300 to 1000 nM | > 75% | – |
| CCc1cc(C#CCN)ccc1-c1cn(CC2OCC(C)(C)CO2)nn1 [Compound I-2] | 300 to 1000 nM | > 75% | – |
| CC1(C)COC(Cn2cc(-c3ccc(C#CCOC4CC4)cc3C3CC3)nn2)OC1 [Compound I-3] | 300 to 1000 nM | > 75% | – |
| CC(O)C1CN(c2ccc(-c3cn(CC4OCC5(CC5)CO4)nn3)c(N(C)C)c2)C1 (centres unmarked) [Compound I-5, 1-(1-(4-(1-(5,7-dioxaspiro[2.5]octan-6-ylmethyl)-1H-1,2,3-triazol-4-yl)-3-(dimethylamino)phenyl)azetidin-3-yl)ethanol] | – | > 75% | – |
| CN(C)c1cc(N2CC3(CC(O)C3)C2)ccc1-c1cn(CC2OCC3(CC3)CO2)nn1 (centres unmarked) [Compound I-7, 2-(4-(1-(5,7-dioxaspiro[2.5]octan-6-ylmethyl)-1H-1,2,3-triazol-4-yl)-3-(dimethylamino)phenyl)-2-azaspir[3.3]heptan-6-ol] | – | > 75% | – |
| CC1(C)COC(Cn2cc(-c3ncc(C(=O)NCc4cnccn4)cc3OC3CC3)nn2)OC1 [Compound I-10] | – | ≤ 25% | – |
| Cc1ccc(C2CC2)nc1-c1cn(CC2OCC(C)(C)CO2)nn1 [Compound I-11] | – | – | ≤ 25% |
| Cc1cc(C#CC2CC2)ccc1-c1cn(Cc2cncs2)nn1 [Compound I-12] | – | – | ≤ 25% |
| Cc1cc(C#CC2CC2)ccc1-c1cn(Cc2cocn2)nn1 [Compound I-13] | – | ≤ 25% | – |
| CC1(C)COC(Cn2cc(-c3ncc(C#N)cc3OC3CC3)nn2)OC1 [Compound I-14] | 300 to 1000 nM | > 75% | – |
| Cc1cc(C#CC2CC2)ccc1-c1cn(Cc2cscn2)nn1 [Compound I-19] | – | – | ≤ 25% |
| CN(C)C(=O)Cn1cc(-c2ncc(C#CC3CC3)cc2OC2CC2)nn1 [Compound I-23, 2-(4-(3-cyclopropoxy-5-(cyclopropylethynyl)pyridin-2-yl)-1H-1,2,3-triazol-1-yl)-N,N-dimethylacetamide] | 1000 to 3000 nM | > 75% | – |
| CN(C)C(=O)Cn1cc(-c2ccc(N3CC(C)(CO)C3)cc2N(C)C)nn1 [Compound I-24] | 1000 to 3000 nM | > 75% | – |
| CN(C)c1cc(N2CC3(COC3)C2)c(F)cc1-c1cn(CC2OCC3(CC3)CO2)nn1 [Compound I-25] | ≤ 300 nM | – | > 75% |
| CC1(CO)CN(c2cnc(-c3cn(CC4OCC(F)(F)CO4)nn3)c(OC3CC3)c2)C1 [Compound I-27] | – | 50 to 75% | – |
| CN(C)c1cc(C#CC2(O)CC2)ccc1-c1cn(CC2OCC(C)(C)CO2)nn1 [Compound I-28] | ≤ 300 nM | – | > 75% |
| CC1(C)COC(Cn2cc(C#Cc3ccc(C4CC4)cc3)nn2)OC1 [Compound I-29] | – | ≤ 25% | – |
| CC(O)C1(C)CN(c2ccc(-c3cn(CC4OCC5(CC5)CO4)nn3)c(N(C)C)c2)C1 (centres unmarked) [Compound I-30] | ≤ 300 nM | – | > 75% |
| CC1(C)COC(Cn2cc(C#Cc3ccncc3)nn2)OC1 [Compound I-32] | – | ≤ 25% | – |
| Cc1cc(C#CC2CC2)ccc1-c1cn(Cc2cnco2)nn1 [Compound I-33] | – | ≤ 25% | – |
| CCc1cc(C#CC(N)=O)ccc1-c1cn(CC2OCC(C)(C)CO2)nn1 [Compound I-37] | ≤ 300 nM | > 75% | – |
| CN(C)c1cc(N2CC(C)(CO)C2)ccc1-c1cn(CC2OCC(C)(C)CO2)cn1 [Compound I-39] | 300 to 1000 nM | > 75% | – |
| CC1(C)COC(Cn2cc(-c3ncc(CC#N)cc3OC3CC3)nn2)OC1 [Compound I-40] | – | 50 to 75% | – |
| CN(C)c1cc(N2CC(C)(CO)C2)ccc1-c1cn(CC2OCC3(CC3)CO2)cn1 [Compound I-41] | ≤ 300 nM | – | > 75% |
| CN(C)c1cc(N2CC3(COC3)C2)ccc1-c1cn(CC2OCC3(CC3)CO2)cn1 [Compound I-42] | – | > 75% | – |
| CC1(C)COC(Cn2ncc(C#Cc3ccncc3)n2)OC1 [Compound I-43] | – | ≤ 25% | – |

Now from value to compound:

| IC50 | inhibition at 10 µM | inhibition at 2 µM | SMILES |
| --- | --- | --- | --- |
| 300 to 1000 nM | – | > 75% | C(#Cc1ccc(-c2cn(CC3OCC4(CC4)CO3)nn2)c(C2CC2)c1)COC1CC1 [Compound I-4] |
| – | – | > 75% | C(#CC1CCC1)c1cnc(-c2cn(CC3OCC4(CC4)CO3)nn2)c(OC2CC2)c1 [Compound I-6] |
| 300 to 1000 nM | > 75% | – | CC(C)(O)C#Cc1cnc(-c2cn(CC3OCC(C)(C)CO3)nn2)c(OC2CC2)c1 [Compound I-8] |
| ≤ 300 nM | – | > 75% | C(#Cc1cnc(-c2cn(CC3OCC4(CC4)CO3)nn2)c(OC2CC2)c1)CN1CC2(CC2)C1 [Compound I-9] |
| ≤ 300 nM | – | > 75% | CC(=O)NCC#Cc1cnc(-c2cn(CC3OCC(C)(C)CO3)nn2)c(OC2CC2)c1 [Compound I-15] |
| ≤ 300 nM | – | > 75% | FC1(F)CC12CN(CC#Cc1cnc(-c3cn(CC4OCC5(CC5)CO4)nn3)c(OC3CC3)c1)C2 [Compound I-16] |
| 300 to 1000 nM | > 75% | – | c1nc(-c2cn(CC3OCC4(CC4)CO3)nn2)c(OC2CC2)cc1N1CC2(CC2)C1 [Compound I-17] |
| – | 25 to 50% | – | FC1(F)CC12CN(c1cnc(-c3cn(CC4OCC5(CC5)CO4)nn3)c(OC3CC3)c1)C2 [Compound I-18] |
| – | > 75% | – | c1nc(-c2cn(CC3OCC4(CC4)CO3)nn2)c(OC2CC2)cc1N1CC2(COC2)C1 [Compound I-20] |
| ≤ 300 nM | – | > 75% | CC1(C)COC(Cn2cc(-c3ncc(C#CCNC4COC4)cc3OC3CC3)nn2)OC1 [Compound I-21] |
| ≤ 300 nM | – | > 75% | OC1CC2(C1)CN(CC#Cc1cnc(-c3cn(CC4OCC5(CC5)CO4)nn3)c(OC3CC3)c1)C2 (centres unmarked) [Compound I-22] |
| – | > 75% | – | CC1(CO)CN(c2cnc(-c3cn(CC4CC5(CC5)CO4)nn3)c(OC3CC3)c2)C1 (centres unmarked) [Compound I-26] |
| ≤ 300 nM | > 75% | – | OC1CC2(C1)CN(c1cnc(-c3cn(CC4OCC5(CC5)CO4)nn3)c(OC3CC3)c1)C2 (centres unmarked) [Compound I-31] |
| ≤ 300 nM | – | > 75% | CC1(C)COC(Cn2cc(-c3ncc(C#CC4(O)CC4)cc3OC3CC3)nn2)OC1 [Compound I-34] |
| ≤ 300 nM | – | > 75% | OC1(C#Cc2cnc(-c3cn(CC4OCC5(CC5)CO4)nn3)c(OC3CC3)c2)CC1 [Compound I-35] |
| ≤ 300 nM | – | > 75% | CC1(C)COC(Cn2cc(-c3ncc(C#CCNS(C)(=O)=O)cc3OC3CC3)nn2)OC1 [Compound I-36] |
| ≤ 300 nM | – | > 75% | CC1(C)COC(Cn2cc(-c3ncc(C#CCNC4CC(F)(F)C4)cc3OC3CC3)nn2)OC1 [Compound I-38] |
